Legend:
[1] = biological target: LMP7 (purified human immuno proteasome) (Homo sapiens, UniProt P20618+P28062); experiment: Determination of LMP7 activity (fluorescence intensity assay, Suc-LLVY-AMC); assay type: biochemical; details: for Selectivity LMP7 vs Beta5: LMP7 versus Beta5, incubation for 20 minutes; for IC50: purified human immuno proteasome 0.25 nM, incubation for 20 minutes at 25° C., Suc-LLVY-AMC 40 μM
Method: Determination of LMP7 Activity:
Measurement of LMP7 inhibition is performed in 384 well format based on fluorescence intensity assay.
(§1) Purified human immuno proteasome (0.25 nM) and serial diluted compounds in DMSO (range of concentrations from 30 μM to […]) or controls are incubated for 20 minutes or 120 minutes (long incubation) at 25° C. in assay buffer containing 50 mM Tris pH 7.4, 0.03% SDS, 1 mM EDTA and 1% DMSO. The reaction is initiated by the addition of the fluorogenic peptide substrate, Suc-LLVY-AMC (Bachem 1-1395), at a concentration of 40 μM. After 60 minutes of incubation at 37° C., fluorescence intensity is measured at λex=350 nm and λem=450 nm with a fluorescence reader (Perkin Elmer Envision reader or equivalent).
(§2) Unless indicated otherwise the results are obtained after incubation for 20 minutes.

[2] = biological target: Beta5 (purified human constitutive proteasome) (Homo sapiens, UniProt P20618+P28074); experiment: Determination of Beta5 activity (fluorescence intensity assay, Suc-LLVY-AMC); assay type: biochemical; details: purified human constitutive proteasome 1.25 nM, incubation for 20 minutes at 25° C., Suc-LLVY-AMC 40 μM
Method: Determination of Beta5 Activity:
Measurement of Beta5 inhibition is performed in 384 well format based on fluorescence intensity assay.
as §1, with “constitutive” for “immuno”, “(1.25” for “(0.25”
as §2

Structure (SMILES): CSC(C(=O)N[C@@H](Cc1coc2ccccc12)B(O)O)c1ccccc1 (single isomer, unassigned) [Compound 7]
- Selectivity LMP7 vs Beta5 [1]: ++ (100 ≤ Selectivity < 300)
- IC50 [1]: ≤ 50 nM
- IC50 [2]: 5 to 30 µM

Structure (SMILES): O=C(N[C@@H](Cc1coc2ccccc12)B(O)O)C1Cc2ccccc2O1 (single isomer, unassigned) [Compound 36]
- Selectivity LMP7 vs Beta5 ([1]; listed as drawing 86): + (Selectivity <100)
- IC50 [1]: ≤ 50 nM
- IC50 [2]: 0.05 to 0.5 µM

Structure (SMILES): O=C(N[C@@H](Cc1coc2ccccc12)B(O)O)C1Cc2ccccc2O1 (single isomer, unassigned) [Compound 37]
- Selectivity LMP7 vs Beta5 ([1]; listed as drawing 87): +++ (300 ≤ Selectivity < 500)
- IC50 [1]: ≤ 50 nM
- IC50 [2]: 0.5 to 5 µM

Structure (SMILES): CSCC(=O)N[C@H](Cc1coc2c(C)cccc12)B(O)O [Compound 1, [(1S)-2-(7-methylbenzo-furan-3-yl)-1-[(2-methyl-sulfanylacetyl)amino]-ethyl]boronic acid]
- Selectivity LMP7 vs Beta5 [1]: ++ (100 ≤ Selectivity < 300)
- IC50 [1]: 500 to 5000 nM
- IC50 [2]: 5 to 30 µM

Structure (SMILES): CSCC(=O)N[C@@H](Cc1coc2c(C(F)(F)F)cccc12)B(O)O [Compound 3, [(1R)-1-[(2-methyl-sulfanylacetyl)amino]-2-[7-(trifluoromethyl)-benzofuran-3-yl]ethyl]-boronic acid]
- Selectivity LMP7 vs Beta5 [1]: +++ (300 ≤ Selectivity < 500)
- IC50 [1]: ≤ 50 nM
- IC50 [2]: 0.5 to 5 µM

Structure (SMILES): COc1cccc2occ(C[C@H](NC(=O)CSC)B(O)O)c12 [Compound 4, [(1R)-2-(4-methoxy-benzofuran-3-yl)-1-[(2-methylsulfanylacetyl)-amino]ethyl]boronic acid]
- Selectivity LMP7 vs Beta5 [1]: + (Selectivity <100)
- IC50 [1]: 500 to 5000 nM
- IC50 [2]: 5 to 30 µM

Structure (SMILES): CSCC(=O)N[C@@H](C[C@@H]1COc2ccccc21)B(O)O [Compound 5, [(1R)-2-[(3S)-2,3-dihydrobenzofuran-3-yl]-1-[(2-methylsulfan-ylacetyl)amino]ethyl]-boronic acid]
- Selectivity LMP7 vs Beta5 [1]: +++ (300 ≤ Selectivity < 500)
- IC50 [1]: ≤ 50 nM
- IC50 [2]: 0.5 to 5 µM

Structure (SMILES): CSCC(=O)N[C@@H](Cc1coc2c(C)cccc12)B(O)O [Compound 6, [(1R)-2-(7-methylbenzo-furan-3-yl)-1-[(2-methyl-sulfanylacetyl)amino]-ethyl]boronic acid]
- Selectivity LMP7 vs Beta5 [1]: ++ (100 ≤ Selectivity < 300)
- IC50 [1]: ≤ 50 nM
- IC50 [2]: 0.05 to 0.5 µM

Structure (SMILES): O=C(N[C@@H](Cc1coc2ccccc12)B(O)O)C1SCCS1 [Compound 8, [(1R)-2-(benzofuran-3-yl)-1-(1,3-dithiolane-2-carbonylamino)ethyl]-boronic acid]
- Selectivity LMP7 vs Beta5 [1]: ++ (100 ≤ Selectivity < 300)
- IC50 [1]: ≤ 50 nM
- IC50 [2]: 0.5 to 5 µM

Structure (SMILES): CSCC(=O)NC(Cc1coc2c(F)cccc12)B(O)O (stereo not drawn) [Compound 9, [2-(7-fluorobenzofuran-3-yl)-1-[(2-methyl-sulfanylacetyl)amino]-ethyl]boronic acid]
- Selectivity LMP7 vs Beta5 [1]: ++ (100 ≤ Selectivity < 300)
- IC50 [1]: ≤ 50 nM
- IC50 [2]: 0.5 to 5 µM

Structure (SMILES): CSCC(=O)N[C@@H](CC1COc2c(C)cccc21)B(O)O (stereo partly drawn) [Compound 10, [(1R)-2-(7-methyl-2,3-dihydrobenzofuran-3-yl)-1-[(2-methyl-sulfanylacetyl)amino]-ethyl]boronic acid]
- Selectivity LMP7 vs Beta5 [1]: ++++ (Selectivity ≥ 500)
- IC50 [1]: ≤ 50 nM
- IC50 [2]: 5 to 30 µM

Structure (SMILES): O=C(N[C@@H](Cc1coc2ccccc12)B(O)O)C1OCCS1 (stereo partly drawn) [Compound 11, [(1R)-2-(benzofuran-3-yl)-1-(1,3-oxathiolane-2-carbonylamino)ethyl]-boronic acid]
- Selectivity LMP7 vs Beta5 [1]: ++ (100 ≤ Selectivity < 300)
- IC50 [1]: ≤ 50 nM
- IC50 [2]: 0.05 to 0.5 µM

Structure (SMILES): CSCC(=O)N[C@@H](Cc1coc2c(F)cccc12)B(O)O [Compound 12, [(1R)-2-(7-fluorobenzo-furan-3-yl)-1-[(2-methyl-sulfanylacetyl)amino]-ethyl]boronic acid]
- Selectivity LMP7 vs Beta5 [1]: ++ (100 ≤ Selectivity < 300)
- IC50 [1]: ≤ 50 nM
- IC50 [2]: 0.05 to 0.5 µM

Structure (SMILES): CCSCC(=O)N[C@@H](Cc1coc2ccccc12)B(O)O [Compound 13, [(1R)-2-(benzofuran-3-yl)-1-[(2-ethylsulfanyl-acetyl)amino]ethyl]-boronic acid]
- Selectivity LMP7 vs Beta5 [1]: +++ (300 ≤ Selectivity < 500)
- IC50 [1]: ≤ 50 nM
- IC50 [2]: 0.5 to 5 µM

Structure (SMILES): CSCC(=O)N[C@@H](Cc1coc2c(C)c(Cl)ccc12)B(O)O [Compound 14, [(1R)-2-(6-chloro-7-methylbenzofuran-3-yl)-1-[(2-methyl-sulfanylacetyl)amino]-ethyl]boronic acid]
- Selectivity LMP7 vs Beta5 [1]: +++ (300 ≤ Selectivity < 500)
- IC50 [1]: ≤ 50 nM
- IC50 [2]: 0.5 to 5 µM

Structure (SMILES): O=C(CSCCCO)N[C@@H](Cc1coc2ccccc12)B(O)O [Compound 15, [(1R)-2-(benzofuran-3-yl)-1-[[2(3-hydroxy-propylsulfanyl)acetyl]-amino]ethyl]boronic acid]
- Selectivity LMP7 vs Beta5 [1]: + (Selectivity <100)
- IC50 [1]: ≤ 50 nM
- IC50 [2]: 0.05 to 0.5 µM

Structure (SMILES): CSCC(=O)N[C@@H](Cc1coc2c(Cl)cccc12)B(O)O [Compound 16, [(1R)-2-(7-chlorobenzo-furan-3-yl)-1-[(2-methylsulfanylacetyl)-amino]ethyl]boronic acid]
- Selectivity LMP7 vs Beta5 [1]: ++ (100 ≤ Selectivity < 300)
- IC50 [1]: ≤ 50 nM
- IC50 [2]: 0.05 to 0.5 µM

Structure (SMILES): O=C(N[C@@H](Cc1coc2ccccc12)B(O)O)C1CCCS1 (stereo partly drawn) [Compound 17, [(1R)-2-(benzofuran-3-yl)-1-(tetrahydrothio-phene-2-carbonyl-amino)ethyl]boronic acid]
- Selectivity LMP7 vs Beta5 [1]: ++ (100 ≤ Selectivity < 300)
- IC50 [1]: ≤ 50 nM
- IC50 [2]: 5 to 30 µM

Structure (SMILES): CSCC(=O)NC(CC1COc2ccccc21)B(O)O (stereo not drawn) [Compound 19, [2-(2,3-dihydrobenzo-furan-3-yl)-1-[(2-methylsulfanylacetyl)-amino]ethyl]boronic acid]
- Selectivity LMP7 vs Beta5 [1]: ++++ (Selectivity ≥ 500)
- IC50 [1]: ≤ 50 nM
- IC50 [2]: 5 to 30 µM

Structure (SMILES): CSCC(=O)NC(Cc1coc2c(C)c(Cl)ccc12)B(O)O (stereo not drawn) [Compound 20, [2-(6-chloro-7-methyl-benzofuran-3-yl)-1-[(2-methylsulfanylacetyl)-amino]ethyl]boronic acid]
- Selectivity LMP7 vs Beta5 [1]: +++ (300 ≤ Selectivity < 500)
- IC50 [1]: ≤ 50 nM
- IC50 [2]: 0.5 to 5 µM

Structure (SMILES): CSCC(=O)N[C@@H](Cc1ccc(C)cc1C)B(O)O [Compound 21, [(1R)-2-(2,4-dimethyl-phenyl)-1-[(2-methyl-sulfanylacetyl)amino]-ethyl]boronic acid]
- Selectivity LMP7 vs Beta5 [1]: ++ (100 ≤ Selectivity < 300)
- IC50 [1]: ≤ 50 nM
- IC50 [2]: 0.5 to 5 µM

Structure (SMILES): CSCC(=O)N[C@@H](Cc1coc2ccccc12)B(O)O [Compound 22, [(1R)-2-(benzofuran-3-yl)-1-[(2-methyl-sulfanylacetyl)-amino]ethyl]boronic acid]
- Selectivity LMP7 vs Beta5 [1]: ++ (100 ≤ Selectivity < 300)
- IC50 [1]: ≤ 50 nM
- IC50 [2]: 0.5 to 5 µM

Structure (SMILES): CSCC(=O)N[C@H](Cc1coc2c(F)cccc12)B(O)O [Compound 23]
- Selectivity LMP7 vs Beta5 [1]: ++ (100 ≤ Selectivity < 300)
- IC50 [1]: 50 to 500 nM
- IC50 [2]: 5 to 30 µM

Structure (SMILES): O=C(CCO)N[C@@H](Cc1coc2ccccc12)B(O)O [Compound 24, [(1R)-2-(benzofuran-3-yl)-1-(3-hydroxypro-panoylamino)ethyl]-boronic acid]
- Selectivity LMP7 vs Beta5 [1]: ++ (100 ≤ Selectivity < 300)
- IC50 [1]: ≤ 50 nM
- IC50 [2]: 0.5 to 5 µM

Structure (SMILES): CC(C)(O)CC(=O)N[C@@H](Cc1coc2ccccc12)B(O)O [Compound 25, [(1R)-2-(benzofuran-3-yl)-1-[(3-hydroxy-3-methylbutanoyl)amino]-ethyl]boronic acid]
- Selectivity LMP7 vs Beta5 [1]: ++ (100 ≤ Selectivity < 300)
- IC50 [1]: ≤ 50 nM
- IC50 [2]: 5 to 30 µM

Structure (SMILES): O=C(N[C@@H](Cc1coc2ccccc12)B(O)O)[C@@H]1CCCO1 [Compound 26, [(1R)-2-(benzofuran-3-yl)-1-[[(2S)-tetrahydro-furan-2-carbonyl]amino]-ethyl]boronic acid]
- Selectivity LMP7 vs Beta5 [1]: ++ (100 ≤ Selectivity < 300)
- IC50 [1]: 50 to 500 nM
- IC50 [2]: 5 to 30 µM

Structure (SMILES): O=C(N[C@@H](Cc1coc2ccccc12)B(O)O)[C@H]1CCCO1 [Compound 27, [(1R)-2-(benzofuran-3-yl)-1-[[(2R)-tetrahydro-furan-2-carbonyl]amino]-ethyl]boronic acid]
- Selectivity LMP7 vs Beta5 [1]: ++ (100 ≤ Selectivity < 300)
- IC50 [1]: ≤ 50 nM
- IC50 [2]: 0.5 to 5 µM

Structure (SMILES): COCC(=O)N[C@@H](Cc1coc2ccccc12)B(O)O [Compound 28, [(1R)-2-(benzofuran-3-yl)-1-[(2-methoxy-acetyl)amino]ethyl]-boronic acid]
- Selectivity LMP7 vs Beta5 [1]: + (Selectivity <100)
- IC50 [1]: ≤ 50 nM
- IC50 [2]: 0.5 to 5 µM

From patent publication US20210317145A1, “Boronic Acid Derivatives” (Merck Patent GmbH, priority 2018, published 2021)
